Columns and labels:
Type in all cases: cell-based, human
[1] = system: shSSTR subtype 2-BON cells; test: Growth suppression in tetracycline-controlled shRNA knock-down cells; conditions: sh-hSSTR subtype 2-BON; FIG. 5
Description: To validate that cell growth inhibition is caused by the anti-hSSTR antibody in a subtype specific manner, BON cells were stably transfected with plasmids carrying short hairpin RNA shSSTR subtype 2 or shSSTR subtype 5 in which the expression of the shRNAs were under the control of tetracycline. Sh-hSSTR subtype 2 and sh-hSSTR subtype 5 destabilize the target receptor's messenger RNA and, consequently, knock down the expression of the target gene.
The resulting maximal suppression in hours (20 hours) is designated as 100% of growth suppression. The difference measured in doubling time detected between experimental samples and untreated samples divided by the maximal suppression yields the percent growth suppression.
shSSTR BON cells were used to test the specificity of anti-hSSTR subtype 2 and anti-hSSTR subtype 5 antibodies in suppressing BON cell growth. […] The left panels of FIG. 6a and FIG. 6B are the experimental group, while the right panels are the negative control. The Y-axis of each of FIG. 6A and FIG. 6B indicates the growth suppression outcome in %, while the X-axis of each of FIG. 6A and FIG. 6B indicates the increasing concentrations of the antibodies added in each sample. […]

[2] = system: sh-hSSTR subtype 5-BON cells; test: Growth in tetracycline-controlled shRNA knock-down cells; conditions: FIG. 5
BON cells [3] = test: Cell cycle progression, propidium iodide flow cytometry; conditions: 48 hours, 5 μg/ml antibodies or rabbit IgG, 100 nM octreotide, FIG. 12
Description: Propidium iodide dye was used in flow cytometry (Guava Cell Cycle Reagent Cat #4500-0220) to stain DNA and detect cell cycle progression in BON cells. Treatment conditions for the experiment were as follows: (i) D-PBS; (ii) 5 μg/ml rabbit IgG; (iii) 5 μg/ml anti-hSSTR subtype 2 antibodies; […] Treatments, as described above, were added to the cells once every 24 hours for a total of 48 hours. At the end of each treatment, cells were dissociated from the plate using 2 ml 1× trypsin-EDTA (Invitrogen Cat#2520). […] Next, phosphate buffer solution (D-PBS) (Invitrogen Cat#14190-144) was used as the exchange buffer and 15 ml Falcon tubes with samples were spun at 900 rpm using a table top centrifuge (Beckman Coulter). After centrifugation, supernatant was discarded and cell pellet was resuspended in 10 ml of PBS and this was repeated two times. […] Guava Cell Cycle Reagent (Guava Technologies, Cat#4500-0220) was used for detection by using the Guava PCA96 instrument. Cell Cycle data was analyzed by using Guava Cell Cycle module (Guava Technologies, Cat# 0500-0480). For further detail, please see Guava Cell Cycle Reagent protocol (Guava Technologies).

QGP cells = test: MTS growth assay in pancreatic islet carcinoma cells; conditions: antibodies 5 μg/ml every 24 hours, octreotide 100 nM every 24 hour, FIG. 15
Description: The QGP cells were maintained in F12 HAM (Invitrogen, Cat#31765035)/D-MEM (Invitrogen, Cat#10567-014) (50/50) in 10% certified fetal bovine serum (FBS) (Invitrogen, Cat#16000-044) in 10-cm tissue culture plates (BD Biosciences, Cat#353003). QGP cells were first seeded at a density of 5000 cells/well in QGP cell growth media and grown in 96-well cell culture plates (Costar, Cat#3590) and allowed to attach and grow in 100 μl cell growth media. […] QGP cells constitutively make their own somatostatin. This negative growth autocrine loop was tested by adding 10 μg/ml neutralizing anti-SST antibody (SST antibody, right hand Y-axis of FIG. 15) once every 24 hours, and a significant growth rescue (29%) was observed. […] CellTiter 96® Aqueous One Solution Cell Proliferation Assay (MTS) (Promega, Cat#G3581), was used as described above to measure the growth doubling time for all QGP cells. Daily data collected was used to calculate the doubling time in hours. QGP cell growth increase or decrease as a result of each treatment is presented as a percent change along the x-axis in FIG. 15. The percent change for QGP cells in each treatment was derived by normalizing treated cells against untreated cells (as % of change in growth) in growth doubling time.

BON cells [4] = test: Serotonin EIA, serotonin release
Description: A serotonin ([…]) assay was performed using Serotonin EIA (Biosource, Cat# KAPL10-0900) to measure serotonin release by BON cells over a 48-hour period with or without treatment. […] After 24 hours, the BON cells were subjected to six different daily treatments (at maximum dosages) and grown in FBS-free cell growth media for 2 days in a sterile tissue culture chamber at 37° C. with 6% CO2. These six treatments were: […] The anti-hSSTR Abs (4)-(6) were antibodies produced in the experiment described in Example 1. At the end of each treatment, 1× Halt Protease Inhibitor cocktail (Pierce, Cat# 78415) was immediately added to each sample and the media was collected from each sample and used for Serotonin detection. Next, cells were dissociated from the plate using 2 ml of 1× trypsin-EDTA (Invitrogen Cat#2520) in cell growth media and incubated at 37° C. with 6% CO2 for 5 minutes. Subsequently, an additional 8 ml of cell growth media was added to neutralize trypsin-EDTA, and subjected to 1000 rpm at 4° C. in 15 ml Falcon tubes using Beckman table top centrifuge. Guava Technologies PCA-96 instrument (tabletop flow cytometer) and Viacount flex reagent (Guava Technologies, Cat# 4500-0100) were then used to determine the number of cells for the abovementioned treatments. The results were as follows: […] […]

C[C@@H](O)[C@@H]1NC(=O)[C@H](CCCCN)NC(=O)[C@@H](Cc2c[nH]c3ccccc23)NC(=O)[C@H](Cc2ccccc2)NC(=O)[C@@H](NC(=O)[C@H](N)Cc2ccccc2)CSSC[C@@H](C(=O)N[C@H](CO)[C@@H](C)O)NC1=O [octreotide]
growth doubling time under octreotide compared to BON cells [1]: did not change
growth doubling time under octreotide compared to BON cells [2]: did not change
cell population in G0/G1 (BON cells [3]): ~75%
QGP growth suppression (QGP cells): sensitive
serotonin level in the media (BON cells [4]; 48-hour period, 5 μg/ml antibody or rabbit IgG, 100 nM octreotide, four independent experiments): 2126 attogram/cell
decrease of serotonin release against control (BON cells [4]; 48 hours, antibodies against rabbit IgG, octreotide against vehicle (PBS)): 2.7 fold

— patent US20090016989A1, “ANTIBODIES TO HUMAN SOMATOSTATIN RECEPTOR AND METHODS OF USE” (priority 2007, published 2009)
